Legend:
[1] = system: NL4-3-infected .221-C1402 and .221-C1403 cells; experiment: ICS assay, peptide-specific bulk T cells against NL4-3-infected .221 cells; type: cell-based, human; settings: IFN-γ ICS, p24+ cells 52% and 54%, not by uninfected .221 cells, triplicate assays
Experimental: We next investigated whether T cells specific for these peptides could recognize NL4-3-infected .221-C1402 or .221-C1403 cells.
FIG 5 Recognition of NL4-3-infected .221-CD4 cells by peptide-specific CD8^+ T cells. The response of bulk T cells specific for 6 peptides to NL4-3-infected .221-C1402 cells, NL4-3-infected .221-C1403 cells, NL4-3-infected 721.221 cells, uninfected .221-C1402 cells, and uninfected .221-C1403 cells was analyzed by ICS assay. The frequencies of p24^+ cells were as follows: NL4-3-infected .221-C1402 cells, 52%; NL4-3-infected .221-C1403 cells, 54%. The results are means and SDs from triplicate assays.
PBMCs from HIV-1-infected individuals were stimulated with 1 μM concentrations of the corresponding peptides and then cultured for 2 weeks in RPMI 1640 medium (Thermo Fisher) containing 10% FCS, 20 ng/mL of human recombinant interleukin 2 (rIL-2) (ProSpec), 1× minimal essential medium (MEM) nonessential amino acid solution (Gibco), and 1 mM sodium pyruvate solution (Gibco). Following T cell expansion, .221-C1402 cells or .221-C1403 cells prepulsed with each HIV-1 peptide or .221-C1402 cells or .221-C1403 cells infected with HIV-1 NL4-3 were added to a 96-well plate together with bulk-cultured T cells, and the cells were incubated for 4 h at 37°C with brefeldin A ([…]). The cells were then stained with Pacific blue (PB)-labeled anti-CD3 MAb (BioLegend), FITC-labeled anti-CD19 MAb (BioLegend), allophycocyanin (APC)-labeled anti-CD8 MAb (BioLegend), and a LIVE/DEAD fixable near-infrared (IR) dead-cell staining kit (Invitrogen) and subsequently fixed with 4% paraformaldehyde and incubated in permeabilization buffer (0.1% saponin–5% FBS–PBS). Thereafter, the cells were stained with phycoerythrin (PE)-labeled anti-IFN-γ MAb (BioLegend). Staining data were acquired on a FACSCanto II instrument (BD Biosciences) and analyzed using FlowJo 10.7.1 software.

HLA-C*14:02 = HLA-C*14:02 (Homo sapiens, UniProt P10321, A176E/A330V/A35S/A97T/C350S/D114A/D33S/L171W/L180R/L218V/M285V/M309V/M331V/P208H/Q277E/Q291P/R121W/R243W/S123F/S297R/S48A/T329A/T363A/V319A); experiment: HLA stabilization assay on RMA-S-C1402 cells; type: cell-based; settings: for relative affinity in hierarchy of peptide-HLA-C*14 binding (HLA-C*14:02): peptide concentrations from 0.1 to 100 μM, 6 epitope peptides compared; for binding to HLA-C*14:02 (stabilization of surface HLA expression): 100 μM peptide, 26°C 1 h then 37°C 3 h, MAb DT-9 staining, flow cytometry, triplicate assays
Source text: We next sought to confirm the HLA-C*14:02/C*14:03 restriction of the HIV-1 peptides identified by LC-MS/MS. First, we tested their ability to bind to HLA-C*14:02 or HLA-C*14:03 using HLA stabilization assays. Of the 25 HIV-1 peptides, three Env peptides, Env SI8, Env AM11, and Env VM9, are located in variable regions V2 and V3. In addition, Pol AF10, Pol PF8, Pol VWL9, and Env YI9 are located in regions where high sequence variation is reported in the LANL database. Therefore, we excluded these peptides from further analysis. The other 18 peptides were synthesized and tested for binding to HLA-C*14:02/C*14:03 by analyzing their ability to stabilize surface HLA expression on TAP-defective RMA-S cell lines expressing HLA-C*14:02 (RMA-S-C1402) or HLA-C*14:03 (RMA-S-C1403). These RMA-S cell lines express equivalent levels of HLA-C*14:02 and HLA-C*14:03 on the cell surface at 26°C, and surface HLA expression declines to very low levels when the cells are warmed to 37°C in the absence of exogenously added stabilizing peptides (Fig. 2A). Peptide binding was determined by evaluating whether HLA-I expression was stabilized in the presence of 100 μM peptide.
FIG 2 HLA-C*14:02/14:03 binding of HIV-1 peptides eluted from NL4-3-infected .221-C1402 and .221-C1403 cells as assessed by HLA stabilization assay using RMA-S cell lines. (A) Histogram plots showing surface expression of HLA-C*14:02 or HLA-C*14:03 on RMA-S-C1402 or RMA-S-C1403 cells at 26°C and after cells cultured at 26°C had been warmed to 37°C for 3 h. MFI values of cells cultured at 26°C were 27.4 for HLA-C*14:02 and 28.1 for HLA-C*14:03. MFI values of cells cultured at 37°C for 3 h were 5.0 for HLA-C*14:02 and 6.54 for HLA-C*14:03. (B) Analysis of binding of 14 HIV-1 NL4.3 peptides identified by LC-MS/MS to HLA-C*14:02 (blue) or HLA-C*14:03 (red) as measured in HLA class I stabilization assays using RMA-S-C1402 or RMA-S-C1403 cells. (C) Analysis of binding of 9 additional variant peptides to HLA-C*14:02 (blue) or C*14:03 (red). For panels B and C, peptides were tested at a concentration of 100 μM. Results are plotted as percent surface HLA-I expression relative to that at 26°C, calculated as the ratio of the MFI of peptide-pulsed RMA-S-C1402 or RMA-S-C1403 cells to that of control (non-peptide-pulsed) cells kept at 26°C, multiplied by 100. Means and standard deviations (SDs) from triplicate assays are shown. Statistical analyses were performed by unpaired t test. The P values were corrected for multiple testing. *, P < 0.05 and q < 0.05; **, P < 0.01 and q < 0.03; ***, P < 0.001 and q < 0.005.
The relative affinity of peptide binding to HLA-C*14:02 and -C*14:03 was examined using RMA-S-C1402 and RMA-S-C1403 cells as previously described ([15]). Briefly, RMA-S cells were cultured at 26°C for 16 h, pulsed with peptides at 26°C for 1 h, and subsequently incubated at 37°C for 3 h. Staining of cell surface HLA-C molecules was performed with the HLA-C-reactive monoclonal antibody (MAb) DT-9 ([48]), a gift from Mary Carrington, NIH, and fluorescein isothiocyanate (FITC)-conjugated sheep anti-mouse IgG (Jackson ImmunoResearch). Staining data were acquired on a FACSCanto II instrument (BD Biosciences) and analyzed using FlowJo 10.7.1 software. Relative HLA expression was calculated as the ratio of the mean fluorescence intensity (MFI) of peptide-pulsed RMA-S-C1402 cells or RMA-S-C1403 cells to that of control (non-peptide-pulsed) cells kept at 26°C, multiplied by 100 to express the values for peptide-pulsed cells as a percentage of that for the control cells at 26°C.

| Sequence | activation of peptide-specific T cells by NL4-3-infected .221-C1402 and .221-C1403 cells [1] | relative affinity in hierarchy of peptide-HLA-C*14 binding (HLA-C*14:02) (HLA-C*14:02) | binding to HLA-C*14:02 (stabilization of surface HLA expression) (HLA-C*14:02) |
| --- | --- | --- | --- |
| AFHHVAREL [Nef AL9] | Strong functional activation | lowest |  |
| AFSPEVIPM [Gag AM9] | Strong functional activation | highest |  |
| ASGYIEAEV [Pol AV9, HIV-1 NL4-3 Pol 795–803 peptide …] |  |  | did not exhibit detectable binding |
| FFREDLAF [Pol FF8, HIV-1 NL4-3 Pol 1–8 peptide FFREDLAF] |  |  | low |
| FLGAAGSTM [Env FM9, HIV-1 NL4-3 Env 522–530 peptide …] |  |  | did not exhibit detectable binding |
| FMTKALGI [Tat FI8, HIV-1 NL4-3 Tat 38–45 peptide FMTKALGI] |  |  | did not exhibit detectable binding |
| IYHTQGYF [Nef IF8] | Strong functional activation |  |  |
| KYHSNWRAM [Pol KM9] | Strong functional activation |  |  |
| LYNTIAVLY [Gag LY9] | Strong functional activation |  |  |
| RFDSRLAF [Nef RF8, HIV-1 NL4-3 Nef 184–191 peptide RFDSRLAF] |  |  | did not exhibit detectable binding |
| VYYDPSKDL [Pol VYL9, HIV-1 NL4-3 Pol 472–480 peptide …] |  |  | low |
| YFPDWQNYT [Nef YT9] | Strong functional activation |  |  |
